Experimental data taken from patent US20080095786A9, “Compositions And Methods For Preventing And Treating Endotoxin-Related Diseases And Conditions” (priority 2003, published 2008).

What was measured:
[1] = Antioxidant screening experiments: stability of E5564 to free-radical oxidation; details: for Comments (effectiveness of antioxidant in stabilizing E5564 to oxidation): 18-22 hours
Description: We tested several antioxidant compounds to determine whether they impact the stability of E5564 to free-radical oxidation.

[2] = Relative stability of E5564 in aqueous solution by formation of major oxidative degradants (FIG. 1); type: physicochemical; details: inclusion of BHA, 7 μg/vial
Description: FIG. 1 is a graph showing the relative stability of E5564 in aqueous solution prepared with different drug substance lots, as measured by the formation of major oxidative degradants.
The following is a detailed description of an example of a method for formulating E5564. As is discussed further below, key features of this method include the following. A small amount (7 μg/vial) of butylated hydroxyanisole (BHA) was added to the formulation to prevent oxidation of the E5564 in aqueous solution. […] In addition, the sodium content of the solution was lowered by replacing sodium phosphate salts with phosphoric acid for pH adjustment, to enhance micelle size stability during the freeze-drying manufacturing step, and a high shelf temperature was used in the freeze-drying step of the process.

[3] = Stabilization of E5564 micelle size during lyophilization (freeze-drying); details: for Micelle Size (hydrodynamic diameter): after lyophilization; for Stabilizing the micelle size of E5564 during freeze-drying: disaccharide in formulation
[4] = time 0-4 hours, E5564 solution with the labelled antioxidant
[5] = time 18-22 hours, E5564 solution with the labelled antioxidant (row 'none' = E5564 without antioxidant)
[6] = time 0 hours, E5564 solution with the labelled antioxidant (row 'none' = E5564 without antioxidant)

Row | Comments (effectiveness of antioxidant in stabilizing E5564 to oxidation) [1] | E5564 conc. (% initial) [1, 4] | E5564 conc. (% initial) [1, 5] | Compound | E5564 conc. (% initial) [1, 6] | Major Oxidative Degradant [1, 5] | further results
1 | effective |  |  | O[C@H](CS)[C@H](O)CS (racemic) [dithiothreitol] |  |  | 
2 | Not useful, sta- | 100 % initial | 97.4 % initial | O=C1O[C@H]([C@@H](O)CO)C(O)=C1O [Ascorbic Acid] |  |  | 
3 | Not useful, sta- | 100 % initial | 92.4 % initial | CCCCCCCCCCCCCCCC(=O)OC[C@H](O)[C@H]1OC(=O)C(O)=C1O [Ascorbyl Palmitate] |  |  | 
4 | Effective |  | 102.8 % initial | Cc1cc(C(C)(C)C)c(O)c(C(C)(C)C)c1 [BHT, butylated hydroxytoluene] | 100 % initial |  | 
5 | Effective | 100 % initial | 101.3 % initial | OCC(O)CS (centres unmarked) [Monothioglycerol, monothioglycerol] |  |  | 
6 | Effective |  | 100.6 % initial | CCCOC(=O)c1cc(O)c(O)c(O)c1 [Propyl Gallate, propyl gallate] | 100 % initial |  | 
7 |  | 100 % initial | 94.2 % initial | CC(=O)Oc1c(C)c(C)c2c(c1C)CCC(C)(CCC[C@H](C)CCC[C@H](C)CCCC(C)C)O2 (some centres unmarked) [Vitamin E Acetate] |  |  | 
8 |  |  |  | OC[C@H]1O[C@@H](O[C@H]2[C@H](O)[C@@H](O)C(O)O[C@@H]2CO)[C@H](O)[C@@H](O)[C@H]1O (some centres unmarked) [lactose] |  |  | Stabilizing the micelle size of E5564 during freeze-drying [3]: effective
9 |  |  |  | OC[C@H]1O[C@@](CO)(O[C@H]2O[C@H](CO)[C@@H](O)[C@H](O)[C@H]2O)[C@@H](O)[C@@H]1O [sucrose] |  |  | Stabilizing the micelle size of E5564 during freeze-drying [3]: effective

Row | Compound | Comments (effectiveness of antioxidant in stabilizing E5564 to oxidation) [1] | E5564 conc. (% initial) [1, 4] | E5564 conc. (% initial) [1, 5] | E5564 conc. (% initial) [1, 6] | Major Oxidative Degradant [1, 5] | further results
10 | COc1ccc(O)c(C(C)(C)C)c1 [BHA, butylated hydroxyanisole] | Effective |  | 102.3 % initial | 100 % initial | 0.27 | Stability of E5564 drug product in solution [2]: increases its stability; Major Oxidative Degradant [1, 6]: 0.68
11 | CCCCCC/C=C\CCCCCCCCCC(=O)N[C@H]1[C@H](OC[C@H]2O[C@H](OP(=O)([O-])[O-])[C@H](NC(=O)CC(=O)CCCCCCCCCCC)[C@@H](OCCCCCCCCCC)[C@@H]2O)O[C@H](COC)[C@@H](OP(=O)([O-])[O-])[C@@H]1OCC[C@@H](CCCCCCC)OC.[Na+].[Na+].[Na+].[Na+] [E5564] | Rapid degradation |  | 91.3 % initial | 100 % initial | 6.02 | Major Oxidative Degradant [1, 6]: 1.12; Stability of micelle size ([3]; 2 mM Na+ in formulation (excluding Na+ from the drug)): good stability; Maintaining the desired micelle size during freeze-drying ([3]; 10 mM Na+ in formulation (excluding sodium from the drug)): works for some, but not all, lots; Micelle Size (hydrodynamic diameter) ([3]; 1% (w/v) lactose in formulation): 16 nm; Micelle Size (hydrodynamic diameter) ([3]; 2% (w/v) lactose in formulation): 13 nm; Micelle Size (hydrodynamic diameter) ([3]; 5% (w/v) lactose in formulation): 8 nm; Micelle Size (hydrodynamic diameter) ([3]; 10% (w/v) lactose in formulation): 7 nm
12 | O=S([O-])[O-].[Na+].[Na+] [Sodium Sulfite, sodium sulfite] | Effective | 100 % initial | 101.8 % initial |  | 0.25 | Major Oxidative Degradant [1, 4]: 0.13
13 | O=S([O-])([O-])=S.[Na+].[Na+] [Sodium Thiosulfate, sodium thiosulfate] | Effective | 100 % initial | 100.2 % initial |  | 0.19 | Major Oxidative Degradant [1, 4]: 0.09
